Experimental findings from US10246453B2, “Benzenesulfonamide compounds and their use as therapeutic agents” (Xenon Pharmaceuticals Inc., priority 2016, dated 2019) are described below.

Molecules are shown by their SMILES. pIC50: −log10 of the molar value. Where a name gives a salt, the structure may show the parent alone. Some results are limits rather than exact numbers.

For one data set, the target named is NaV1.1 (Homo sapiens (Human), UniProt P35498). Briefly: Sodium Influx Assay (Flux), NaV1.1. It is filed as cell-based. As to conditions: Trex HEK293 cells, ANG2 dye; arithmetic mean.
A further data set addresses NaV1.6 (Homo sapiens (Human), UniProt Q9UQD0). Briefly: Sodium Influx Assay (Flux), NaV1.6. The settings on record: read-out: Flux NaV1.6 IC50; Trex HEK293 cells, ANG2 dye; arithmetic mean.
The target of another data set is NaV1.5 (Homo sapiens (Human), UniProt Q14524). Briefly: Sodium Influx Assay (Flux), NaV1.5. The settings on record: read-out: Flux NaV1.5 IC50; Trex HEK293 cells, ANG2 dye; arithmetic mean.
Sequence of NaV1.5 (Q14524 other isoform, or with tags, fused parts or gaps): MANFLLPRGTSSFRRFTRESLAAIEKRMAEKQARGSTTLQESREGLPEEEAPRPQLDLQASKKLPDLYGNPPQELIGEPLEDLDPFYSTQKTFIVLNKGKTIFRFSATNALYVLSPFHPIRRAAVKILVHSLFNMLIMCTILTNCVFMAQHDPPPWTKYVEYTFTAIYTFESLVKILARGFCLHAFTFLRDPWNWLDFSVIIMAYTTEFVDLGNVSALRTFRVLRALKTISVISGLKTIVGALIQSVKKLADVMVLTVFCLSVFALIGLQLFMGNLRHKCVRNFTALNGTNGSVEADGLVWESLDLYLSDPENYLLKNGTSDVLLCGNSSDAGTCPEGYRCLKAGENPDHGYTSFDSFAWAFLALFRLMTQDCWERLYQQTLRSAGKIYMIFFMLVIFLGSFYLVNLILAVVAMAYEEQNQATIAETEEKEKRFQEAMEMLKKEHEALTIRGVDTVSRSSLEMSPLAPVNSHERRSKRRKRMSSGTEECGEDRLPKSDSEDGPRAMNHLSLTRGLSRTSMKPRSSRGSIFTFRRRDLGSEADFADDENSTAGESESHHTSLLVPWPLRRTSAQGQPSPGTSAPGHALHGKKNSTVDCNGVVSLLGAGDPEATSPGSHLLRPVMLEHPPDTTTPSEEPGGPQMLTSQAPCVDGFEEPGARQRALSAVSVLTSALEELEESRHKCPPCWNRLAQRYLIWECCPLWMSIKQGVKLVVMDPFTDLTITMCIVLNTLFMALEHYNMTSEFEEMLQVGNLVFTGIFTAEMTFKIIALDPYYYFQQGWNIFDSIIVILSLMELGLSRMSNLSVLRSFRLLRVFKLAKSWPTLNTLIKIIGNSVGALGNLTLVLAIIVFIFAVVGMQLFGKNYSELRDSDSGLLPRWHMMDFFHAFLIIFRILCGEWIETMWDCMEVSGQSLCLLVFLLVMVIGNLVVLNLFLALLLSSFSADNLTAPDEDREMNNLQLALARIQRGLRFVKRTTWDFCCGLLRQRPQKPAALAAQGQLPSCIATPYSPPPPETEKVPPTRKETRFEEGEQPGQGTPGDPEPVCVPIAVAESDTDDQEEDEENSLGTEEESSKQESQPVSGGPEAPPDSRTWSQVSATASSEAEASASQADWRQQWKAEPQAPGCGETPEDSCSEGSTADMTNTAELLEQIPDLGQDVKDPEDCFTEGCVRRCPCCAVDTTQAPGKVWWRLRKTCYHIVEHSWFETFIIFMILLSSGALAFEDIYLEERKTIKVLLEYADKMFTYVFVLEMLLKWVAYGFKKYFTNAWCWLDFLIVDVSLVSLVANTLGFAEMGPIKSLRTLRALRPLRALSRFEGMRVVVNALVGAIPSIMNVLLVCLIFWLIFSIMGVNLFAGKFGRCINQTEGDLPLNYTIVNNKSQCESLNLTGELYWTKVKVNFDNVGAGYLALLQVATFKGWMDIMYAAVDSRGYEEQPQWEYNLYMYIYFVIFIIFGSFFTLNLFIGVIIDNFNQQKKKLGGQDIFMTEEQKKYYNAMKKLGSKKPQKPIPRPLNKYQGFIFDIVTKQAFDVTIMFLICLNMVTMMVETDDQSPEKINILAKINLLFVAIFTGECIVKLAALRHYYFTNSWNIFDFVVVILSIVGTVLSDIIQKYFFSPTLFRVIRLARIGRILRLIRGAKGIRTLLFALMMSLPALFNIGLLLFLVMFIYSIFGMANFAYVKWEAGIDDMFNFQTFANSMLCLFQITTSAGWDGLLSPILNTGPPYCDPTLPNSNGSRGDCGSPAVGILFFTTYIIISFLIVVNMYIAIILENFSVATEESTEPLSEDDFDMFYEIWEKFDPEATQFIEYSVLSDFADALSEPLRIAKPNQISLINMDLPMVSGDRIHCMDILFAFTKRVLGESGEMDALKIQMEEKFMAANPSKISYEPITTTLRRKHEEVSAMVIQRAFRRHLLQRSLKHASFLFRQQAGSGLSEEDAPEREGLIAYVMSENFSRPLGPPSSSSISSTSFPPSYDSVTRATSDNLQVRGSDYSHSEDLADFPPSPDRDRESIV

Consider `Cc1cc(S(=O)(=O)Nc2cscn2)c(F)cc1N(C)[C@H]1CCN(Cc2ncccc2OC(C)C)C1` [Example 116, (S)-2-fluoro-4-((1-((3-isopropoxypyridin-2-yl)methyl)pyrrolidin-3-yl)(methyl)amino)-5-methyl-N-(thiazol-4-yl)benzenesulfonamide formate], for which the negative-log IC50 (pIC50) at NaV1.1 is 4.53; on NaV1.6, 6.28; at NaV1.5, under 4.52.

In the case of `Cc1cc(S(=O)(=O)Nc2cscn2)c(F)cc1N(C)[C@H]1CCN([C@H]2C[C@H](c3ccccc3)C2)C1` [Example 117, 2-fluoro-5-methyl-4-(methyl((S)-1-((1r,3S)-3-phenylcyclobutyl)-pyrrolidin-3-yl)amino)-N-(thiazol-4-yl)benzenesulfonamide formate], the pIC50 at NaV1.1 was 5.65; at NaV1.6 it was 5.84; on NaV1.5, 5.51.

Regarding `Cc1cc(S(=O)(=O)Nc2cscn2)c(F)cc1N(C)[C@H]1CCN(Cc2ccn(CC(F)(F)F)n2)C1` [Example 118, (S)-2-fluoro-5-methyl-4-(methyl(1-((1-(2,2,2-trifluoroethyl)-1H-pyrazol-3-yl)methyl)pyrrolidin-3-yl)amino)-N-(thiazol-4-yl)benzenesulfonamide], the pIC50 on NaV1.1 is 4.89; on NaV1.6 it was 7.24; at NaV1.5 it was under 4.52.

On to `COc1ccccc1CN1CC[C@H](N(C)c2cc(F)c(S(=O)(=O)Nc3cscn3)cc2C)C1` [Example 119, (S)-2-fluoro-4-((1-(2-methoxybenzyl)-pyrrolidin-3-yl)(methyl)amino)-5-methyl-N-(thiazol-4-yl)benzenesulfonamide formate], for which the negative logarithm of the IC50 (pIC50) was 4.54 against NaV1.1, 6.43 on NaV1.6 and 4.70 at NaV1.5.

Consider `COc1cccnc1CN1CC[C@H](N(C)c2cc(F)c(S(=O)(=O)Nc3cscn3)cc2C)C1` [Example 120, (S)-2-fluoro-4-((1-((3-methoxypyridin-2-yl)methyl)pyrrolidin-3-yl)(methyl)amino)-5-methyl-N-(thiazol-4-yl)benzenesulfonamide formate], for which the pIC50 at NaV1.1 is under 4.52; at NaV1.6, 6.41; at NaV1.5, 4.64.

`Cc1cc(CN2CC[C@H](N(C)c3cc(F)c(S(=O)(=O)Nc4cscn4)cc3C)C2)ns1` [Example 121, (S)-2-fluoro-5-methyl-4-(methyl(1-((5-methylisothiazol-3-yl)methyl)pyrrolidin-3-yl)amino)-N-(thiazol-4-yl)benzenesulfonamide formate]: the results for the negative logarithm of the IC50 (pIC50) on NaV1.1, on NaV1.6 and on NaV1.5 were under 4.52, 5.83 and under 4.52, respectively.

With `Cc1cc(S(=O)(=O)Nc2cscn2)c(F)cc1N(C)[C@H]1CCN(Cc2cc3ccccn3n2)C1` [Example 122, (S)-2-fluoro-5-methyl-4-(methyl(1-(pyrazolo[1,5-a]pyridin-2-ylmethyl)pyrrolidin-3-yl)amino)-N-(thiazol-4-yl)benzenesulfonamide], the negative logarithm of the IC50 (pIC50) against NaV1.1 was 4.57; on NaV1.6 it was 5.77; at NaV1.5, 4.62.

In the case of `Cc1cc(S(=O)(=O)Nc2cscn2)c(F)cc1N(C)[C@H]1CCN(CC2CCCCC2)C1` [Example 123, (S)-4-((1-(cyclohexylmethyl)-pyrrolidin-3-yl)(methyl)amino)-2-fluoro-5-methyl-N-(thiazol-4-yl)benzenesulfonamide], the figures for the negative logarithm of the IC50 (pIC50) on NaV1.1, on NaV1.6 and at NaV1.5 were 5.13, 5.40 and under 4.52, respectively.

On to `Cc1cc(S(=O)(=O)Nc2cscn2)c(F)cc1N(C)[C@H]1CCN(CC(C)(C)C)C1` [Example 124, (S)-2-fluoro-5-methyl-4-(methyl(1-neopentylpyrrolidin-3-yl)amino)-N-(thiazol-4-yl)benzenesulfonamide formate], for which the negative-log IC50 (pIC50) against NaV1.1 is under 4.52; on NaV1.6 it was 5.00; on NaV1.5, under 4.52.

Turning to `Cc1cc(S(=O)(=O)Nc2cscn2)c(F)cc1N(C)[C@H]1CCN(CCC(C)(C)C)C1` [Example 125, (S)-4-((1-(3,3-dimethylbutyl)-pyrrolidin-3-yl)(methyl)amino)-2-fluoro-5-methyl-N-(thiazol-4-yl)benzenesulfonamide formate], the pIC50 against NaV1.1 is 4.83; at NaV1.6, 5.63; on NaV1.5, under 4.52.

In the case of `Cc1cc(S(=O)(=O)Nc2cscn2)c(F)cc1N(C)[C@H]1CCN(Cc2ccc(O)cc2)C1` [Example 126, (S)-2-fluoro-4-((1-(4-hydroxybenzyl)-pyrrolidin-3-yl)(methyl)amino)-5-methyl-N-(thiazol-4-yl)benzenesulfonamide], the pIC50 against NaV1.1 is under 4.52; on NaV1.6, 5.34; at NaV1.5, under 4.52.

As to `Cc1cc(S(=O)(=O)Nc2cscn2)c(F)cc1N(C)[C@H]1CCN(Cc2cccc(C)c2F)C1` [Example 127, (S)-2-fluoro-4-((1-(2-fluoro-3-methylbenzyl)pyrrolidin-3-yl)(methyl)amino)-5-methyl-N-(thiazol-4-yl)benzenesulfonamide 2,2,2-trifluoroacetate], the pIC50 on NaV1.1 was 4.97; at NaV1.6, 6.28; at NaV1.5, 4.99.

Take `Cc1cc(S(=O)(=O)Nc2cscn2)c(F)cc1N(C)[C@H]1CCN([C@H]2CCc3ccccc32)C1` [Example 128, 4-(((S)-1-((S)-2,3-dihydro-1H-inden-1-yl)pyrrolidin-3-yl)(methyl)amino)-2-fluoro-5-methyl-N-(thiazol-4-yl)benzenesulfonamide]: the values for the pIC50 against NaV1.1, on NaV1.6 and at NaV1.5 were under 4.52, 6.73 and 4.65, respectively.

For the molecule `Cc1csc(CN2CC[C@H](N(C)c3cc(F)c(S(=O)(=O)Nc4cscn4)cc3C)C2)n1` [Example 129, (S)-2-fluoro-5-methyl-4-(methyl(1-((4-methylthiazol-2-yl)methyl)pyrrolidin-3-yl)amino)-N-(thiazol-4-yl)benzenesulfonamide], the values for the pIC50 on NaV1.1, on NaV1.6 and on NaV1.5 were under 4.52, 6.08 and under 4.52, respectively.

For the molecule `Cc1ccc(F)c(CN2CC[C@H](N(C)c3cc(F)c(S(=O)(=O)Nc4cscn4)cc3C)C2)n1` [Example 130, (S)-2-fluoro-4-((1-((3-fluoro-6-methylpyridin-2-yl)methyl)pyrrolidin-3-yl)(methyl)amino)-5-methyl-N-(thiazol-4-yl)benzenesulfonamide], the pIC50 is under 4.52 at NaV1.1, 6.55 on NaV1.6 and 4.62 on NaV1.5.

Take `Cc1nc(CN2CC[C@H](N(C)c3cc(F)c(S(=O)(=O)Nc4cscn4)cc3C)C2)co1` [Example 131, (S)-2-fluoro-5-methyl-4-(methyl(1-((2-methyloxazol-4-yl)methyl)pyrrolidin-3-yl)amino)-N-(thiazol-4-yl)benzenesulfonamide]: the negative logarithm of the IC50 (pIC50) on NaV1.1 was under 4.52; at NaV1.6, 5.54; at NaV1.5, under 4.52.

In the case of `Cc1ccc(CN2CC[C@H](N(C)c3cc(F)c(S(=O)(=O)Nc4cscn4)cc3C)C2)o1` [Example 132, (S)-2-fluoro-5-methyl-4-(methyl(1-((5-methylfuran-2-yl)methyl)pyrrolidin-3-yl)amino)-N-(thiazol-4-yl)benzenesulfonamide], the pIC50 on NaV1.1 is 4.68; at NaV1.6, 6.84; at NaV1.5, under 4.52.

For the molecule `Cc1cc(S(=O)(=O)Nc2cscn2)c(F)cc1N(C)[C@H]1CCN(Cc2coc(C(C)C)n2)C1` [Example 133, (S)-2-fluoro-4-((1-((2-isopropyloxazol-4-yl)methyl)pyrrolidin-3-yl)(methyl)amino)-5-methyl-N-(thiazol-4-yl)benzenesulfonamide], the pIC50 against NaV1.1 was 4.96; at NaV1.6, 6.61; at NaV1.5, under 4.52.

For `Cc1cc(S(=O)(=O)Nc2cscn2)c(F)cc1N(C)[C@H]1CCN(Cc2nc(C3CC3)cs2)C1` [Example 134, (S)-4-((1-((4-cyclopropylthiazol-2-yl)methyl)pyrrolidin-3-yl)(methyl)amino)-2-fluoro-5-methyl-N-(thiazol-4-yl)benzenesulfonamide], the pIC50 against NaV1.1 was 4.92; on NaV1.6, 6.39; at NaV1.5 it was under 4.52.

Regarding `Cc1cc(S(=O)(=O)Nc2cscn2)c(F)cc1N(C)[C@H]1CCN(Cc2csc(-c3ccccc3)n2)C1` [Example 135, (S)-2-fluoro-5-methyl-4-(methyl(1-((2-phenylthiazol-4-yl)methyl)pyrrolidin-3-yl)amino)-N-(thiazol-4-yl)benzenesulfonamide], the pIC50 against NaV1.1 is 6.25; at NaV1.6, 6.19; at NaV1.5, 5.78.

On to `Cc1cc(S(=O)(=O)Nc2cscn2)c(F)cc1N(C)[C@H]1CCN(Cc2nccs2)C1` [Example 136, (S)-2-fluoro-5-methyl-4-(methyl(1-(thiazol-2-ylmethyl)pyrrolidin-3-yl)amino)-N-(thiazol-4-yl)benzenesulfonamide], for which the pIC50 is under 4.52 on NaV1.1, 5.17 at NaV1.6 and under 4.52 on NaV1.5.

With `Cc1cc(S(=O)(=O)Nc2cscn2)c(F)cc1N(C)[C@H]1CCN(Cc2csc(C(F)(F)F)n2)C1` [Example 137, (S)-2-fluoro-5-methyl-4-(methyl(1-((2-(trifluoromethyl)thiazol-4-yl)methyl)pyrrolidin-3-yl)amino)-N-(thiazol-4-yl)benzenesulfonamide], the pIC50 at NaV1.1 was 5.30; on NaV1.6, 6.66; at NaV1.5 it was 4.78.

For the molecule `Cc1cc(S(=O)(=O)Nc2cscn2)c(F)cc1N(C)[C@H]1CCN(Cc2csc(C3CC3)n2)C1` [Example 138, (S)-4-((1-((2-cyclopropylthiazol-4-yl)methyl)pyrrolidin-3-yl)(methyl)amino)-2-fluoro-5-methyl-N-(thiazol-4-yl)benzenesulfonamide], the pIC50 was 5.02 on NaV1.1, 7.30 at NaV1.6 and 4.98 at NaV1.5.
